In patent publication US20230159486A1, “SUBSTITUTED THIOPHENECARBOXAMIDES AND ANALOGUES AS ANTIBACTERIALS AGENTS” (Bayer Aktiengesellschaft, priority 2018, published 2023):
Structures can show the parent of a compound that is named as a salt. Marks after values point to notes of the source that are not given here.

Legend:
[1] = test system: Xanthomonas campestris pv. campestris; experiment: Xanthomonas campestris pv. campestris in vitro cell test (bacteria growth in liquid culture); type: cell-based; details: 20 ppm of tested compound, 24 h of incubation
Experimental: Culture medium: LB broth medium (Luria Broth Miller) Sigma
Inoculum: bacteria suspension
Compounds to be tested were solubilized in DMSO and the solution used to prepare the required range of concentrations. The final concentration of DMSO used in the assay was ≤1%.
Inoculum was prepared from a pre-culture of bacteria grown in liquid medium and diluted to the desired optical density (OD).
Compounds were evaluated for their ability to inhibit bacteria growth in liquid culture assay. The compounds were added in the desired concentrations to culture medium containing the bacteria suspension. After 24 h of incubation, the efficacy of compounds was determined by spectrometric measurement of bacteria growth. Inhibition was determined by comparing the absorbance values in wells containing the compounds with the absorbance in control wells without compounds.

[2] = test system: Xanthomonas campestris pv. campestris; experiment: In vivo preventive test on Xanthomonas campestris pv. campestris (black rot on cabbage); details: comparative Example C, same conditions as described in Example B; concentration not given
Experimental: The tested compounds were prepared by homogenization in a mixture of acetone/Dimethyl sulfoxide/Tween®, and then diluted with water to obtain the desired concentration.
The young plants of cabbage were treated by spraying the compound prepared as described above. Control plants were treated only with an aqueous solution of acetone/Dimethyl sulfoxide/Tween®.
After 72 hours, the plants were contaminated by spraying the leaves with an aqueous bacteria suspension of Xanthomonas campestris pv. campestris. The contaminated cabbage plants were incubated for 8 or 10 days at 27° C. at 95% relative humidity.
The test was evaluated 8 or 10 days after the inoculation. 0% means an efficacy which corresponds to that of the control plants while an efficacy of 100% means that no disease was observed.
Compounds CMP1 and CMP2 were tested in an in vivo preventive test on Xanthomonas campestris pv. campestris (black rot on cabbage) in the same conditions as described in Example B.
Compounds CMP1 and CMP2 were prepared in accordance with the teaching of U.S. Pat. No. 5,534,541.

[3] = Log P by HPLC on reversed phase columns (EEC directive 79/831 Annex V.A8); type: physicochemical
Experimental: In the above tables, measurement of Log P values was performed according to EEC directive 79/831 Annex V.A8 by HPLC (High Performance Liquid Chromatography) on reversed phase columns with the following methods: • ^[a]
If more than one Log P value is available within the same method, all the values are given and separated by “+”.
Calibration was done with straight-chain alkan2-ones (with 3 to 16 carbon atoms) with known Log P values (measurement of Log P values using retention times with linear interpolation between successive alkanones). Lambda-max-values were determined using UV-spectra from 200 nm to 400 nm and the peak values of the chromatographic signals.

[4] = test system: salicylate responsive promoter sequence of the PR1 (pathogenesis-related protein 1) gene (AT2G14610); experiment: Induction of defense gene expression in Arabidopsis thaliana (PR1 promoter-GFP reporter plants); type: in vivo; details: 300 ppm, 3rd day after spraying; mock treated leaves set as 1.00
Experimental: Arabidopsis thaliana reporter plants containing the coding sequence of a green fluorescent protein (GFP) linked to the salicylate responsive promoter sequence of the PR1 (pathogenesis-related protein 1) gene (AT2G14610) were grown for five days and then sprayed with compounds. On the 3rd day after spraying, plant fluorescence was assessed with a MacroFluo instrument from Leica Microsystems (Wetzlar, Germany). Fluorescences were quantified with the Meta-Morph Microscopy Automation & Image Analysis Software (Molecular Devices, Sunnyvale, Calif., United States). Background fluorescence in mock treated leaves was set as 1.00.

[5] = reversed phase HPLC columns, method [a]: LC-UV, acidic range, 0.1% formic acid in water and acetonitrile
[6] = reversed phase HPLC columns, value of the preparation example, method not marked

Structure (SMILES)	LogP [3]	direct activity (inhibition of bacteria growth) [1]	other results
COC(=O)C(NC(=O)c1sc(Cl)c(Cl)c1Cl)C1CC1 (racemic) [II.06]	3.81^[a]	no direct activity	Efficacy (%) [2]: >90%
CCOC(=O)C(Cc1ccc(O)cc1)NC(=O)c1sc(Cl)c(Cl)c1Cl (racemic) [II.15]	3.63^[a]	no direct activity	–
COC(=O)C(NC(=O)c1cc(Cl)c(Cl)s1)C1CC1 (racemic) [XVIc.03]	2.98^[a]	–	–
COC(=O)CNC(=O)c1sc(Br)c(Br)c1Br [CMP1, reference compound]	–	–	Efficacy (%) [2]: 27%
COC(=O)C(NC(=O)c1sc(Cl)c(Cl)c1Cl)C(C)C (centres unmarked) [CMP2, reference compound]	–	–	Efficacy (%) [2]: 0%
COC(=O)CNC(=O)c1sc(Cl)c(Cl)c1Cl [II.01, methyl N-[(3,4,5-trichloro-2-thienyl)carbonyl]glycinate]	–	no direct activity	Efficacy (%) [2]: >90%; chromatographic logP [3, 5]: 2.83; chromatographic logP [3, 6]: 2.8
CCOC(=O)C1(NC(=O)c2sc(Cl)c(Cl)c2Cl)CC1 [II.02, ethyl 1-{[(3,4,5-trichloro-2-thienyl)carbonyl]amino}cyclopropanecarboxylate]	–	no direct activity	chromatographic logP [3, 5]: 3.41; chromatographic logP [3, 6]: 3.4
O=C(NC1(C(=O)O)CC1)c1sc(Cl)c(Cl)c1Cl [II.03]	–	no direct activity	–
O=C(O)CNC(=O)c1sc(Cl)c(Cl)c1Cl [II.05, N-[(3,4,5-trichloro-2-thienyl)carbonyl]glycine]	–	–	chromatographic logP [3, 5]: 2.16; chromatographic logP [3, 6]: 2.14
CCCOC(=O)CNC(=O)c1sc(Cl)c(Cl)c1Cl [II.10]	3.70^[a]	no direct activity	–
CCCCOC(=O)CNC(=O)c1sc(Cl)c(Cl)c1Cl [II.11]	4.18^[a]	no direct activity	–
O=C(CNC(=O)c1sc(Cl)c(Cl)c1Cl)OCc1ccccc1 [II.13]	–	no direct activity	–
O=C(CNC(=O)c1sc(Cl)c(Cl)c1Cl)OC1CCC1 [II.16]	3.87^[a]	no direct activity	–
CC/C=C\CCOC(=O)CNC(=O)c1sc(Cl)c(Cl)c1Cl [II.17]	4.69^[a]	no direct activity	–
O=C(CNC(=O)c1sc(Cl)c(Cl)c1Cl)OCC1CC1 [II.18]	3.81^[a]	no direct activity	–
CC(C)COC(=O)CNC(=O)c1sc(Cl)c(Cl)c1Cl [II.19]	4.13^[a]	no direct activity	–
N#CCOC(=O)CNC(=O)c1sc(Cl)c(Cl)c1Cl [II.21]	2.84^[a]	no direct activity	–
C[Si](C)(C)COC(=O)CNC(=O)c1sc(Cl)c(Cl)c1Cl [II.23]	4.81^[a]	no direct activity	–
CCOC(=O)[C@H](Cc1ccccc1)NC(=O)c1sc(Cl)c(Cl)c1Cl [II.25]	5.00^[a]	–	–
CCOC(=O)CN(C)C(=O)c1sc(Cl)c(Cl)c1Cl [II.35]	3.21^[a]	no direct activity	–
CCOC(=O)[C@@H](Cc1ccccc1)NC(=O)c1sc(Cl)c(Cl)c1Cl [II.37]	5.00^[a]	–	–
O=C(O)c1ccccc1O [Salicylic acid]	–	–	relative fluorescence value [4]: 2.70
Nc1c(C(=O)O)sc(Cl)c1Cl [XIXc.01, 3-amino-4,5-dichlorothiophene-2-carboxylic acid hydrochloride (1:1)]	–	–	chromatographic logP ([3]; method [a]: LC-UV, acidic range, 0.1% formic acid in water and acetonitrile): 2.05
CCOC(=O)C1(NC(=O)c2sc(Cl)c(Cl)c2N)CC1 [XVIIc.01, ethyl 1-{[(3-amino-4,5-dichloro-2-thienyl)carbonyl]amino}cyclopropanecarboxylate]	–	–	chromatographic logP [3, 5]: 2.77; chromatographic logP [3, 6]: 2.77

Now from value to molecule, other results behind:

LogP [3]	Structure (SMILES)	direct activity (inhibition of bacteria growth) [1]	other results
3.68^[a]	C=CC1CC1(NC(=O)c1sc(Cl)c(Cl)c1Cl)C(=O)OC (mixture of isomers) [II.36]	no direct activity	Efficacy (%) [2]: >90%
5.22^[a]	CCOC(=O)C(CC(C)C)NC(=O)c1sc(Cl)c(Cl)c1Cl (racemic) [II.04]	no direct activity	–
5.04^[a]	CCOC(=O)C(Cc1ccccc1)NC(=O)c1sc(Cl)c(Cl)c1Cl (racemic) [II.26]	–	–
3.62^[a]	CC(C)CC(NC(=O)c1sc(Cl)c(Cl)c1Cl)C(=O)O (racemic) [II.31]	–	–
3.56^[a]	O=C(NC(Cc1ccccc1)C(=O)O)c1sc(Cl)c(Cl)c1Cl (racemic) [II.32]	–	–
2.83^[a]	O=C(NC(C(=O)O)C1CC1)c1sc(Cl)c(Cl)c1Cl (racemic) [II.33]	–	–
3.99^[a]	CCOC(=O)C(Cc1ccccc1)NC(=O)c1scc(Cl)c1Cl (racemic) [XVIa.02]	–	–
2.33^[a]	O=C(NC(C(=O)O)C1CC1)c1cc(Cl)c(Cl)s1 (racemic) [XVIc.05]	–	–
3.60^[a]	O=C(CNC(=O)c1sc(Cl)c(Cl)c1Cl)OCC(F)(F)F [II.07]	no direct activity	–
3.87^[a]	O=C(CNC(=O)c1sc(Cl)c(Cl)c1Cl)Oc1ccccc1 [II.08]	no direct activity	–
3.67^[a]	CC(C)OC(=O)CNC(=O)c1sc(Cl)c(Cl)c1Cl [II.09]	no direct activity	–
3.33^[a]	O=C(CNC(=O)c1sc(Cl)c(Cl)c1Cl)OC1CC1 [II.12]	no direct activity	–
4.82^[a]	CC[C@H](C)[C@H](NC(=O)c1sc(Cl)c(Cl)c1Cl)C(=O)OC [II.14]	no direct activity	Efficacy (%) [2]: >90%
3.13^[a]	C#CCOC(=O)CNC(=O)c1sc(Cl)c(Cl)c1Cl [II.20]	no direct activity	–
3.64^[a]	C=CCOC(=O)CNC(=O)c1sc(Cl)c(Cl)c1Cl [II.22]	no direct activity	–
4.27^[b]	CC(C)(C)OC(=O)CNC(=O)c1sc(Cl)c(Cl)c1Cl [II.24]	no direct activity	–
5.20^[a]	CCOC(=O)[C@@H](CC(C)C)NC(=O)c1sc(Cl)c(Cl)c1Cl [II.27]	–	–
5.16^[a]	CCOC(=O)[C@H](CC(C)C)NC(=O)c1sc(Cl)c(Cl)c1Cl [II.28]	–	–
3.69^[a]	CC[C@H](C)[C@H](NC(=O)c1sc(Cl)c(Cl)c1Cl)C(=O)O [II.30]	–	–
2.40^[a]	CCOC(=O)CNC(=O)c1scc(Cl)c1Cl [XVIa.01]	–	–
2.59^[a]	CCOC(=O)C1(NC(=O)c2scc(Cl)c2Cl)CC1 [XVIa.03]	–	–
2.49^[a]	COC(=O)C1(NC(=O)c2cc(Cl)c(Cl)s2)CC1 [XVIc.01]	–	–
